The series is described as follows: activity coefficient (dimensionless); of the first substance listed, at infinite dilution; xn = mol fraction of the nth substance listed. Conditions: 100 kPa, Liquid, Chromatography, x1 = 0.

± gives the expanded uncertainty stated by the source.

In the case of `C=CCCCC` [hex-1-ene] + CCCC[n+]1ccc(C#N)cc1.O=S(=O)([N-]S(=O)(=O)C(F)(F)F)C(F)(F)F, the activity coefficient is, setting by setting: (308.15 K) 14.1 ± 1.2; (318.15 K) 13.8 ± 1.2; (328.15 K) 13.5 ± 1.2; (338.15 K) 13.2 ± 1.1; (348.15 K) 12.9 ± 1.1; (358.15 K) 12.7 ± 1.1. Further, where the note is “368.15 K”, the activity coefficient turned out to be 12.5 ± 1.1.
In the case of `CCOC(C)(C)C` [2-ethoxy-2-methylpropane] + CCCC[n+]1ccc(C#N)cc1.O=S(=O)([N-]S(=O)(=O)C(F)(F)F)C(F)(F)F, the activity coefficient turned out to be 8.97 ± 0.77 (308.15 K); 8.89 ± 0.77 (318.15 K); 8.84 ± 0.76 (328.15 K); 8.8 ± 0.76 (338.15 K); 8.78 ± 0.76 (348.15 K); 8.73 ± 0.75 (358.15 K). Under “368.15 K”, the activity coefficient amounted to 8.68 ± 0.75.
Take `CCCO` [propan-1-ol] + CCCC[n+]1ccc(C#N)cc1.O=S(=O)([N-]S(=O)(=O)C(F)(F)F)C(F)(F)F: the activity coefficient came to 2.38 ± 0.21 (308.15 K); 2.23 ± 0.19 (318.15 K); 2.1 ± 0.18 (328.15 K); 1.98 ± 0.17 (338.15 K); 1.88 ± 0.16 (348.15 K); 1.79 ± 0.15 (358.15 K). Further, under “368.15 K”, the activity coefficient was found to be 1.7 ± 0.14.
As for `C1CCCCCCC1` [cyclooctane] + CCCC[n+]1ccc(C#N)cc1.O=S(=O)([N-]S(=O)(=O)C(F)(F)F)C(F)(F)F, the activity coefficient (308.15 K) was 26.5 ± 2.3; the activity coefficient (318.15 K) was determined as 25.2 ± 2.2; the activity coefficient (328.15 K) turned out to be 24.1 ± 2.1; the activity coefficient (338.15 K) was 23.2 ± 2; the activity coefficient (348.15 K) came to 22.4 ± 1.9; the activity coefficient (358.15 K) came out at 21.6 ± 1.9. Besides, the activity coefficient (368.15 K) was 20.9 ± 1.8.
Take `CC(C)OC(C)C` [diisopropyl ether] + CCCC[n+]1ccc(C#N)cc1.O=S(=O)([N-]S(=O)(=O)C(F)(F)F)C(F)(F)F: the activity coefficient was found to be 9.7 ± 0.84 (308.15 K); 9.65 ± 0.83 (318.15 K); 9.59 ± 0.83 (328.15 K); 9.57 ± 0.83 (338.15 K); 9.53 ± 0.82 (348.15 K); 9.48 ± 0.82 (358.15 K). The activity coefficient (368.15 K) stood at 9.45 ± 0.82.
For the compound `CCCCCC` [hexane] + CCCC[n+]1ccc(C#N)cc1.O=S(=O)([N-]S(=O)(=O)C(F)(F)F)C(F)(F)F, the activity coefficient was 33 ± 2.9 (308.15 K); 30.7 ± 2.7 (318.15 K); 28.8 ± 2.5 (328.15 K); 27.1 ± 2.3 (338.15 K); 25.6 ± 2.2 (348.15 K); 24.2 ± 2.1 (358.15 K). The activity coefficient (368.15 K) worked out at 23.1 ± 2.
Take `Cc1ccccc1` [toluene] + CCCC[n+]1ccc(C#N)cc1.O=S(=O)([N-]S(=O)(=O)C(F)(F)F)C(F)(F)F: the activity coefficient is, setting by setting: (308.15 K) 1.46 ± 0.12; (318.15 K) 1.54 ± 0.13; (328.15 K) 1.62 ± 0.14; (338.15 K) 1.7 ± 0.14; (348.15 K) 1.78 ± 0.15; (358.15 K) 1.86 ± 0.16. The activity coefficient (368.15 K) amounted to 1.94 ± 0.17.
Take `C1CCOC1` [tetrahydrofuran] + CCCC[n+]1ccc(C#N)cc1.O=S(=O)([N-]S(=O)(=O)C(F)(F)F)C(F)(F)F: the activity coefficient (308.15 K) came out at 0.622 ± 0.054; the activity coefficient (318.15 K) stood at 0.661 ± 0.057; the activity coefficient (328.15 K) is 0.701 ± 0.06; the activity coefficient (338.15 K) turned out to be 0.742 ± 0.063; the activity coefficient (348.15 K) came to 0.779 ± 0.065; the activity coefficient (358.15 K) came to 0.818 ± 0.068. Besides, the activity coefficient (368.15 K) is 0.858 ± 0.071.
Regarding `CCCCCCCC` [octane] + CCCC[n+]1ccc(C#N)cc1.O=S(=O)([N-]S(=O)(=O)C(F)(F)F)C(F)(F)F, the activity coefficient runs as follows: (308.15 K) 65 ± 5.6; (318.15 K) 59.9 ± 5.2; (328.15 K) 55.3 ± 4.8; (338.15 K) 51.3 ± 4.4; (348.15 K) 47.9 ± 4.1; (358.15 K) 45 ± 4. Under “368.15 K”, the activity coefficient came out at 42.4 ± 3.7.
Regarding `Cc1cccc(C)c1` [1,3-dimethylbenzene] + CCCC[n+]1ccc(C#N)cc1.O=S(=O)([N-]S(=O)(=O)C(F)(F)F)C(F)(F)F, the activity coefficient runs as follows: (308.15 K) 2.13 ± 0.18; (318.15 K) 2.25 ± 0.19; (328.15 K) 2.37 ± 0.2; (338.15 K) 2.49 ± 0.21; (348.15 K) 2.6 ± 0.22; (358.15 K) 2.71 ± 0.23. For the same compound, under “368.15 K”, the activity coefficient worked out at 2.83 ± 0.24.
Take `COC(C)=O` [methyl ethanoate] + CCCC[n+]1ccc(C#N)cc1.O=S(=O)([N-]S(=O)(=O)C(F)(F)F)C(F)(F)F: the activity coefficient runs as follows: (308.15 K) 0.607 ± 0.053; (318.15 K) 0.646 ± 0.056; (328.15 K) 0.685 ± 0.059; (338.15 K) 0.724 ± 0.061; (348.15 K) 0.762 ± 0.064; (358.15 K) 0.8 ± 0.067. The activity coefficient (368.15 K) was found to be 0.839 ± 0.07.
Consider `C#CCCCCCC` [1-octyne] + CCCC[n+]1ccc(C#N)cc1.O=S(=O)([N-]S(=O)(=O)C(F)(F)F)C(F)(F)F, for which the activity coefficient worked out at 10.1 ± 0.9 (308.15 K); 10.2 ± 0.9 (318.15 K); 10.3 ± 0.9 (328.15 K); 10.3 ± 0.9 (338.15 K); 10.4 ± 0.9 (348.15 K); 10.4 ± 0.9 (358.15 K). Besides, the activity coefficient (368.15 K) came out at 10.5 ± 0.9.
In the case of `CCO` [ethanol] + CCCC[n+]1ccc(C#N)cc1.O=S(=O)([N-]S(=O)(=O)C(F)(F)F)C(F)(F)F, the activity coefficient runs as follows: (308.15 K) 1.86 ± 0.16; (318.15 K) 1.74 ± 0.15; (328.15 K) 1.64 ± 0.14; (338.15 K) 1.55 ± 0.13; (348.15 K) 1.47 ± 0.12; (358.15 K) 1.39 ± 0.12. Moreover, under “368.15 K”, the activity coefficient was 1.33 ± 0.11.
For the compound `C1CCCCC1` [cyclohexane] + CCCC[n+]1ccc(C#N)cc1.O=S(=O)([N-]S(=O)(=O)C(F)(F)F)C(F)(F)F, the activity coefficient worked out at 17.7 ± 1.5 (308.15 K); 16.3 ± 1.4 (318.15 K); 15.1 ± 1.3 (328.15 K); 14.2 ± 1.2 (338.15 K); 13.2 ± 1.1 (348.15 K); 12.4 ± 1.1 (358.15 K). Moreover, the activity coefficient (368.15 K) worked out at 11.7 ± 1.
For `O` [water] + CCCC[n+]1ccc(C#N)cc1.O=S(=O)([N-]S(=O)(=O)C(F)(F)F)C(F)(F)F, the activity coefficient reads like this: (308.15 K) 3.31 ± 0.29; (318.15 K) 3.01 ± 0.26; (328.15 K) 2.74 ± 0.24; (338.15 K) 2.52 ± 0.22; (348.15 K) 2.33 ± 0.2; (358.15 K) 2.16 ± 0.19. In addition, the activity coefficient (368.15 K) worked out at 2 ± 0.17.
With `C1CCCC1` [cyclopentane] + CCCC[n+]1ccc(C#N)cc1.O=S(=O)([N-]S(=O)(=O)C(F)(F)F)C(F)(F)F, the activity coefficient reads like this: (308.15 K) 12.7 ± 1.1; (318.15 K) 11.6 ± 1; (328.15 K) 10.7 ± 0.9; (338.15 K) 9.97 ± 0.86; (348.15 K) 9.31 ± 0.8; (358.15 K) 8.69 ± 0.75. The activity coefficient (368.15 K) amounted to 8.14 ± 0.7.
For `C#CCCCC` [1-hexyne] + CCCC[n+]1ccc(C#N)cc1.O=S(=O)([N-]S(=O)(=O)C(F)(F)F)C(F)(F)F, the activity coefficient by setting is: (308.15 K) 4.81 ± 0.41; (318.15 K) 4.91 ± 0.42; (328.15 K) 5.01 ± 0.43; (338.15 K) 5.1 ± 0.44; (348.15 K) 5.19 ± 0.45; (358.15 K) 5.28 ± 0.46. In addition, the activity coefficient (368.15 K) worked out at 5.36 ± 0.46.

These data come from the NIST ThermoML archive (doi:10.1016/j.jct.2016.01.017).
